Measured values as given in patent publication US20020107202A1, “Synthetic complementary peptides and ophthalmologic uses thereof” (priority 1999, published 2002).
No end group written: not given here.

Assays:
[1] = system: PMN activated by ultrafiltered tripeptide chemoattractants; test: Polarization assay: inhibition of PMN polarization activated by alkali-degraded rabbit corneal ultrafiltrate; assay type: cell-based, human
Procedure: (§1) Following the technique of Ferrante and Thong^13, polymorphonuclear leukocytes were isolated from fresh heparinized human whole blood by centrifugation on Hypaque-Ficoll (density=1.114) according to a described method^14. […] Purified polymorphonuclear leukocytes were used in the polarization assay. All incubation mixtures were maintained between an osmolality of 280 to 320, a pH range of 7.2 to 7.6, 15 mM phosphate buffer, and 50 μM Ca^2+ and 50 μM Mg^2+.
(§2) The polarization assay^15 was performed in a blind fashion. This assay was used to determine the polymorphonuclear leukocyte response to chemoattractants and inhibitors by measuring the frequency and degree of cellular shape change. Briefly, 2×10^5 polymorphonuclear leukocytes were mixed with preincubated synthetic complementary peptides and chemoattractants in a reaction chamber (total volume=100 μl) at 37° C. for 5 min. At the end of the incubation period an aliquot was collected and mixed with an equal volume of 4% glutaraldehyde for microscopic observation. The remaining volume of each cell suspension was immediately centrifuged at 15,000× g for 5 seconds to remove cells. […] Polymorphonuclear leukocytes in each sample were observed microscopically and assigned scores of 0 (resting=spherical cell with a smooth membrane), 1 (activated=irregular cell with uneven membranes) or 2 (polarized=cell length≧width×2). Scores of 100 polymorphonuclear leukocytes for each sample were added to produce a polarization index. A dose response was performed for each chemoattractant. A concentration of each chemoattractant was chosen from the linear portion of each dose response curve and used as the positive control. Negative control samples consisted of polymorphonuclear leukocytes in HBSS only. […] The Student's t-test (unpaired) was used to analyze the differences in the mean polarization response between polymorphonuclear leukocytes activated with the chemoattractant in the absence or presence of complementary peptides.

[2] = system: N-acetyl-PGP activated PMN; test: Polarization assay: inhibition of N-acetyl-PGP activated PMN polarization; assay type: cell-based, human; conditions: for inhibitory properties against N-acetyl-PGP, fold less than the RTR dimer: comparison of ID50 values
Procedure: as §1, §2

[3] = system: resting PMNs; test: Polarization assay: substance alone on resting PMNs (agonist activity, chemoattractant response); assay type: cell-based, human; conditions: none up to the given concentration
Procedure: (§3) Following the technique of Ferrante and Thong^13, polymorphonuclear leukocytes were isolated from fresh heparinized human whole blood by centrifugation on Hypaque-Ficoll (density=1.114) according to a described method^14. Isolated polymorphonuclear leukocytes (96-99% viability) were resuspended in HBSS with 15 mM phosphate buffer at room temperature and gently agitated on a shaker. The purity of this cell suspension was ≧85% polymorphonuclear leukocytes, ≦5% mononuclear cells and platelets, with the remaining percentage consisting of red blood cells. Purified polymorphonuclear leukocytes were used in the polarization assay. All incubation mixtures were maintained between an osmolality of 280 to 320, a pH range of 7.2 to 7.6, 15 mM phosphate buffer, and 50 μM Ca^2+ and 50 μM Mg^2+.
The polarization assay^15 was performed in a blind fashion. This assay was used to determine the polymorphonuclear leukocyte response to chemoattractants and inhibitors by measuring the frequency and degree of cellular shape change. Briefly, 2×10^5 polymorphonuclear leukocytes were mixed with preincubated synthetic complementary peptides and chemoattractants in a reaction chamber (total volume=100 μl) at 37° C. for 5 min. At the end of the incubation period an aliquot was collected and mixed with an equal volume of 4% glutaraldehyde for microscopic observation. The remaining volume of each cell suspension was immediately centrifuged at 15,000× g for 5 seconds to remove cells. The resulting supernatant was analyzed for lactic dehydrogenase activity.^16 All incubations generated lactate dehydrogenase activity correlating with <5% cell death. Polymorphonuclear leukocytes in each sample were observed microscopically and assigned scores of 0 (resting=spherical cell with a smooth membrane), 1 (activated=irregular cell with uneven membranes) or 2 (polarized=cell length≧width×2). Scores of 100 polymorphonuclear leukocytes for each sample were added to produce a polarization index. A dose response was performed for each chemoattractant. […]

[4] = system: alkali-injured rabbit eye; test: Alkali-injury model, corneal ulceration; assay type: in vivo
Procedure: Animals were maintained and treated in full compliance with the Association for Research in Vision and Ophthalmology (ARVO) Resolution on the Use of Animals in Research. Forty-eight New Zealand Dutch strain albino rabbits (Myrtles Rabbitry, Thompson Station, Tenn., U.S.A.) weighing 2.0 to 2.5 kg were anesthetized with ketamine HCl (12 mg/kg) and xylazine (7.5 mg/kg). Two drops of topical proparacaine (Allergan, Hormigueros, Puerto Rico) were placed in the right eye of each rabbit. Following ocular proptosis, a 12 mm plastic well was centered on the cornea and 0.4 ml of 1 N NaOH instilled into the well and left for a period of 35 sec. The alkali was aspirated and the well irrigated with 10 ml of physiological saline. Erythromycin ointment (0.5%) was applied two times a day and study medications given by the technique of Fraunfelder. Double blind examinations (slit lamp and dissecting microscopy) were conducted on Monday, Wednesday and Friday with photographs on Wednesday. Evaluation was made for the presence and size of epithelial defects, corneal ulceration, perforation and vascularization. Animals were randomly subdivided into two groups of 16 eyes each: 1) Phosphate buffered saline (PBS) control and 2) 800 μM (D)-RTR tetramer in PBS or 1.5 mM (L)-RTR tetramer in PBS alternating every hour. Each animal received one drop of the appropriate medication every hour for 14 hours a day for 33 days and dropping was discontinued until the end of the experiment on day 42.

[5] = system: LTB4 activated PMN; test: Polarization assay: inhibition of LTB4 activated PMN polarization; assay type: cell-based, human
Procedure: LTB4 was dissolved in ethanol and diluted with HBSS (pH 7.3) to a final ethanol concentration of 0.001%. Synthetic complementary peptides and synthetic chemoattractants were dissolved in HBSS (pH 7.3). When necessary, the osmolality was adjusted between 280 and 320 mOsm by adding a small amount of distilled water.
as §3
The polarization assay^15 was performed in a blind fashion. […] The resulting supernatant was analyzed for lactic dehydrogenase activity.^16 All incubations generated lactate dehydrogenase activity correlating with <5% cell death. […]

[6] = day 42, 16 eyes, topical drops to day 33

Row | Substance | inhibition of PMNs activated by the ultrafiltered tripeptide chemoattractants, in words [1] | inhibition of N-acetyl-PGP activated PMN polarization, in words [2] | inhibitory properties against N-acetyl-PGP, fold less than the RTR dimer [2] | Agonist Activity [3] | TOTAL ULCERS End of expt (day 42) (number) ([4]; 16 eyes, day 42) | TOTAL ULCERS End of expt (day 42) (percent of eyes) ([4]; 16 eyes, day 42) | TOTAL ULCERS During expt (number) ([4]; 16 eyes, during experiment) | TOTAL ULCERS During expt (percent of eyes) ([4]; 16 eyes, during experiment) | incidence of corneal ulcers after alkali-injury, in words ([4]; compared to PBS group) | number of ulcers ([4]; day 33, 16 eyes, 800 μM (D)- and 1.5 mM (L)-RTR tetramer drops alternating every hour) | ULCER DEPTH: Anterior (eyes) [4, 6] | ULCER DEPTH: Descemetocele (eyes) [4, 6] | ULCER DEPTH: Middle (eyes) [4, 6] | ULCER DEPTH: No Ulcer (eyes) [4, 6] | ULCER DEPTH: Perforation (eyes) [4, 6] | ULCER DEPTH: Posterior (eyes) [4, 6] | antagonism of LTB4 activation of PMNs, in words [5] | affinity for N-acetyl-PGP, fold greater than the RTR monomer [2]
1 | RTRGG | inhibited | only antagonistic at millimolar concentrations | 20 fold | None, ≦ 40 mM |  |  |  |  |  |  |  |  |  |  |  |  |  | 
2 | ((H2N-Arg-Thr-Arg-Gly-Gly)2-Lys)2-Lys-Ala-CONH2 (H-RTRGG; also: tetrameric Lys-branched, on Lys-Ala-CONH2 core) [RTR tetramer] | inhibited |  |  | None, ≦ 8 mM | 6 | 37.5% | 7 | 43.8% | statistically significant reduction in the frequency of corneal ulceration | 4 ulcers | 4 | 1 | 0 | 9 | 0 | 2 | no effect on LTB4 | 10,000 fold
3 | Arg-Thr-Arg [RTR] | inhibited | only antagonistic at millimolar concentrations | 20 fold | None, ≦ 40 mM |  |  |  |  |  |  |  |  |  |  |  |  |  | 
